Reference: EP0647618A1, “NEW NON IONIC IODINE-CONTAINING DIMERS USEFUL AS X-RAY CONTRAST AGENTS, METHOD FOR THE PREPARATION THEREOF, AND GALENICAL COMPOSITIONS CONTAINING THEM” (CENTRO INVESTIGACION JUSTESA IMAGEN S.A., priority 1993, dated 1994)

Columns and labels:
[1] = Osmolality of aqueous solution at 300 mg I/ml; type: physicochemical; settings: for OSMOLALITY 37°C mOsm/kg at 300 mg I/ml: 300 mg I/ml (Table I)
RAT = assay: General toxicity, average lethal dose (DL50) in the rat, i.v.; type: in vivo
Procedure: (§1) On the other hand, radiologists need compounds with a wide range of uses: for example, angiography, urography, myelography, cisternography, lymphography, cardiography and gastrography. The products according to this invention fulfil the requirements for the above uses, as they have high water solubility, normally higher than 60% (w/v), which, in some cases, is as high as 100% at 20°C, without showing any tendency to crystallize. They also have a very low general toxicity, stated as the average lethal dose for the rat, DL₅₀.

[2] = Viscosity of aqueous solution at 300 mg I/ml; type: physicochemical; settings: for VISCOSITY 37°C mPa.s 300 mg I/ml: 300 mg I/ml (Table I)
physchem = type: physicochemical; settings: for solubility: water
Procedure: as §1

Row | SMILES | OSMOLALITY 37°C mOsm/kg at 300 mg I/ml [1] [mOsm/kg] | DL50 (RAT) via i.v. g I/kg (RAT) [g I/kg] | VISCOSITY 37°C mPa.s 300 mg I/ml [2] [mPa.s] | solubility (physchem) [mg/mL] | OSMOLALITY mOsm/kg at 300 mg I/ml ([1]; 300 mg I/ml (Table II)) [mOsm/kg] | VISCOSITY mPas (37°C) at 300 mg I/ml ([2]; 300 mg I/ml (Table II)) [mPas] | SOLUBILITY IN WATER at 20° (physchem) [%]
1 | CC(=O)N(CC(O)CN(C(C)=O)c1c(I)c(C(=O)NCC(O)CO)c(I)c(C(=O)NCC(O)CO)c1I)c1c(I)c(C(=O)NCC(O)CO)c(I)c(C(=O)NCC(O)CO)c1I (centres unmarked) [IODIXANOL, Iodixanol, reference compound] | 190 | > 20 | 8.7 | > 600 |  |  | 
2 | O=C(CN(CCO)CC(=O)Nc1c(I)c(C(=O)NC(CO)C(O)CO)c(I)c(C(=O)NC(CO)C(O)CO)c1I)Nc1c(I)c(C(=O)NCCO)c(I)c(C(=O)NCCO)c1I (centres unmarked) [ICJ-1592] | 151 | > 20 | 8.4 | > 600 | 151 | 8.4 | > 60
